Patent publication US20110105430A1, “PYRROLO [2,3-C] PYRIDINE DERIVATIVES AS P38 KINEASE INHIBITING AGENTS” (priority 2008, published 2011)

Key:
p38α = target: T1, p38α (Homo sapiens, UniProt Q16539); assay: p38 kinase assay, p38-α with peptide substrate (Caliper LabChip); assay type: biochemical
T1 construct: purchased Millipore
Description: Alternatively, p38 kinase assays were performed in a reaction volume of 70 μL in a 384-well plate, at 30° for […] under the following conditions: 50 mM Hepes, pH 7.4, 10 mM MgCl2, 1 mg/ml FA Free BSA, 1 mM DTT, 10 μM ATP, 10 μM p38 peptide [Caliper Life Sciences FL-Peptide 8 (5-FAM-IPTSPITTTYFFFKKK-COOH)] and 5.7 nM p38-α (Millipore), or 14.3 nM unactivated MAPKAP kinase-2, 0.18 nM p38-α (Millipore) and 2 uM RSK peptide [Caliper Life Sciences FL-Peptide 11 (5-FAM-KKLNRTLSVA-COOH)]. Serial dilutions of compounds were added to each reaction in 700 nL DMSO. 700 nL of DMSO was added to the control wells of the reaction plate as the no inhibitor control for each inhibitor titration. The reaction was terminated by the addition of 15 μL of a 100 mM EDTA. Product formation was analyzed using the Caliper LabChip 3000. The Separation buffer contained 100 mM HEPES pH 7.5, 0.015% Brij-35, 2.5% Coating Reagent #3 (Caliper Life Sciences) and 10 mM EDTA. Calculation of the substrate product ratios are performed using the HTS Well Analyzer software provided by Caliper Life Sciences and the percent inhibition at each compound concentration is determined.

TNF-α = assay: IC50 hWB (TNF-α release assay); assay type: cell-based; conditions: Homo sapiens
Description: Blood was obtained from healthy volunteers by venipuncture using sodium heparin as an anti-coagulant. Peripheral blood mononuclear cells (PBMCs) were isolated using Lymphocyte Separation Medium (ICN) according to manufacturers specifications. Isolated PBMCs were washed 3 times with FIBSS and diluted to a density of 2×10^6 cells/mL in RPMI+5% autologous human serum. 50 μL of the serial dilutions of inhibitor were added to wells of a 96-well tissue culture plate followed by addition of 100 μL of PBMCs and then 50 μL of RPMI complete medium containing 400 ng/mL LPS. A control well of cells without compound but with LPS (maximal stimulation control) and one without compound and without LPS (background control) were included in each titration. The cells were incubated for 16 hours in a humidified incubator at 37° C., 5% CO2. Supernatants were then harvested and TNF-α levels were quantified by immunoassay using commercial reagents (R&D, Inc).

T1 sequence (Q16539 whole entry): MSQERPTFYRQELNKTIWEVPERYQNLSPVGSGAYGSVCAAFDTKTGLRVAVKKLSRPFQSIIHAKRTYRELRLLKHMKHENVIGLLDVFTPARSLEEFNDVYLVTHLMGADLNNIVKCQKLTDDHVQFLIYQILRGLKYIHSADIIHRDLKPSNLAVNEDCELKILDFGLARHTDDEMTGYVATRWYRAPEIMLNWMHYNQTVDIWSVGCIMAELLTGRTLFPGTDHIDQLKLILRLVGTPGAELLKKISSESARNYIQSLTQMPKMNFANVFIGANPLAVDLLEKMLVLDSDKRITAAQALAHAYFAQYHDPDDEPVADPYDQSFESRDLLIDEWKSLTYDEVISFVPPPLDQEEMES

| Structure (SMILES) | IC50 (p38α) [nM] | IC50 (TNF-α) [nM] |
| --- | --- | --- |
| O=C(c1c(F)cc(F)cc1F)c1c[nH]c2c(=O)n(Cc3nc4cc(C(F)(F)F)cnc4[nH]3)ccc12 [Example 19, 3-(2,4,6-trifluorobenzoyl)-6-{[6-(trifluoromethyl)-3H-imidazo[4,5-b]pyridin-2-yl]methyl}-1,6-dihydro-7H-pyrrolo[2,3-c]pyridin-7-one] | 31 | 365 |
| CNC(=O)c1ccn2cc(Cn3ccc4c(C(=O)c5c(F)cc(F)cc5F)c[nH]c4c3=O)nc2c1 [Example 25, N-methyl-2-{[7-oxo-3-(2,4,6-trifluorobenzoyl)-1,7-dihydro-6H-pyrrolo-[2,3-c]pyridin-6-yl]methyl}-imidazo[1,2-c]pyridine-7-carboxamide] | 1 | – |
| O=C(c1ccc(F)cc1F)c1c[nH]c2c(=O)n(Cc3cn4ccccc4n3)ccc12 [Example 20, 3-(2,4-difluorobenzoyl)-6-(imidazo[1,2-a]pyridin-2-ylmethyl)-1,6-dihydro-7H-pyrrolo[2,3-c]pyridin-7-one] | 18 | 162 |
| O=C(c1c(F)cc(F)cc1F)c1c[nH]c2c(=O)n(Cc3nc4ccncc4[nH]3)ccc12 [Example 17, 6-(3H-imidazo[4,5-c]pyridin-2-ylmethyl)-3-(2,4,6-trifluorobenzoyl)-1,6-dihydro-7H-pyrrolo[2,3-c]pyridin-7-one] | 13 | – |
| Cc1cnc2nc(Cn3ccc4c(C(=O)c5c(F)cc(F)cc5F)c[nH]c4c3=O)[nH]c2c1 [Example 11, 6-[(6-methyl-3H-imidazo[4,5-b]pyridin-2-yl)methyl]-3-(2,4,6-trifluorobenzoyl)-1,6-dihydro-7 H-pyrrolo[2,3-c]pyridin-7-one] | 14 | 39 |
| O=C(c1c(F)cc(F)cc1F)c1c[nH]c2c(=O)n(Cc3nc4cccc(F)c4[nH]3)ccc12 [Example 2, 6-[(4-fluoro-1H-benzimidazol-2-yl)methyl]-3-(2,4,6-trifluorobenzoyl)-1,6-dihydro-7H-pyrrolo[2,3-c]pyridin-7-one] | 27 | 128 |
| O=c1c2[nH]cc(C(O)c3ccc(F)cc3F)c2ccn1Cc1cn2ccccc2n1 (centres unmarked) [Example 28, 3-[(2,4-difluorophenyl)(hydroxy)methyl]-6-(imidazo[1,2-a]pyridin-2-ylmethyl)-1,6-dihydro-7H-pyrrolo[2,3-c]pyridin-7-one] | 249 | – |
| NC(=O)c1ccn2cc(Cn3ccc4c(C(=O)c5c(F)cc(F)cc5F)c[nH]c4c3=O)nc2c1 [Example 22, 2-{[7-oxo-3-(2,4,6-trifluorobenzoyl)-1,7-dihydro-6H-pyrrolo[2,3-c]pyridin-6-yl]methyl}imidazo[1,2-a]pyridine-7-carboxamide] | 1.3 | – |
| Cc1cc(F)c(C(=O)c2c[nH]c3c(=O)n(Cc4cc5ccccn5n4)ccc23)c(F)c1 [Example 14, 3-(2,6-difluoro-4-methylbenzoyl)-6-(pyrazolo[1,5-a]pyridin-2-ylmethyl)-1,6-dihydro-7H-pyrrolo[2,3-c]pyridin-7-one] | 22 | 486 |
| O=C(c1c(F)cc(F)cc1F)c1c[nH]c2c(=O)n(Cc3nc4ccccc4[nH]3)ccc12 [Example 1, 6-(1H-benzimidazol-2-ylmethyl)-3-(2,4,6-trifluorobenzoyl)-1,6-dihydro-7H-pyrrolo[2,3-c]pyridin-7-one] | 45 | 461 |
| O=C(c1c(F)cc(F)cc1F)c1c[nH]c2c(=O)n(Cc3nc4cccnc4[nH]3)ccc12 [Example 6, 6-(3H-imidazo[4,5-b]pyridin-2-ylmethyl)-3-(2,4,6-trifluorobenzoyl)-1,6-dihydro-7H-pyrrolo[2,3-c]pyridin-7-one] | 18 | 84 |
| O=C(c1c(F)cc(F)cc1F)c1c[nH]c2c(=O)n(Cc3nc4ncc(C(=O)N5CCOCC5)cc4[nH]3)ccc12 [Example 16, 6-{[6-(morpholin-4-ylcarbonyl)-1H-imidazo[4,5-b]pyridin-2-yl]methyl}-3-(2,4,6-trifluorobenzoyl)-1,6-dihydro-7H-pyrrolo[2,3-c]pyridin-7-one] | 19 | 217 |
| CNC(=O)c1ccc2nc(Cn3ccc4c(C(=O)c5c(F)cc(F)cc5F)c[nH]c4c3=O)[nH]c2c1 [Example 27, N-methyl-2-{[7-oxo-3-(2,4,6-trifluorobenzoyl)-1,7-dihydro-6H-pyrrolo[2,3-c]pyridin-6-yl]methyl}-1H-benzimidazole-5-carboxamide] | 3 | – |
| CN(C)C(=O)c1ccn2cc(Cn3ccc4c(C(=O)c5c(F)cc(F)cc5F)c[nH]c4c3=O)nc2c1 [Example 24, N,N-dimethyl-2-{[7-oxo-3-(2,4,6-trifluorobenzoyl)-1,7-dihydro-6H-pyrrolo[2,3-c]pyridin-6-yl]methyl}imidazo[1,2-a]pyridine-7-carboxamide] | 3.8 | 21 |
| O=C(NCC(F)(F)F)c1cnc2nc(Cn3ccc4c(C(=O)c5c(F)cc(F)cc5F)c[nH]c4c3=O)[nH]c2c1 [Example 15, 2-{[7-oxo-3-(2,4,6-trifluorobenzoyl)-1,7-dihydro-6H-pyrrolo[2,3-c]pyridin-6-yl]methyl}-N-(2,2,2-trifluoroethyl)-3H-imidazo[4,5-b]pyridine-6-carboxamide] | 8.6 | 103 |
| O=C(c1c(F)cc(F)cc1F)c1c[nH]c2c(=O)n(Cc3nc4ncc(Br)cc4[nH]3)ccc12 [Example 8, 6-[(6-bromo-3H-imidazo[4,5-b]pyridin-2-yl)methyl]-3-(2,4,6-trifluorobenzoyl)-1,6-dihydro-7H-pyrrolo[2,3-c]pyridin-7-one] | 24 | 253 |
| Cc1ccc2nc(Cn3ccc4c(C(=O)c5c(F)cccc5F)c[nH]c4c3=O)cn2n1 [Example 9, 3-(2,6-difluorobenzoyl)-6-[(6-methylimidazo[1,2-b]pyridazin-2-yl)methyl]-1,6-dihydro-7H-pyrrolo[2,3-c]pyridin-7-one] | 16 | 217 |
| O=C(c1c(F)cc(F)cc1F)c1c[nH]c2c(=O)n(Cc3cn4cccnc4n3)ccc12 [Example 5, 6-(imidazo[1,2-a]pyrimidin-2-ylmethyl)-3-(2,4,6-trifluorobenzoyl)-1,6-dihydro-7H-pyrrolo[2,3-c]pyridin-7-one] | 5.3 | 88 |
| O=C(c1c(F)cc(F)cc1F)c1c[nH]c2c(=O)n(Cc3nc4ccc(F)c(F)c4[nH]3)ccc12 [Example 3, 6-[(4,5-difluoro-1H-benzimidazol-2-yl)methyl]-3-(2,4,6-trifluorobenzoyl)-1,6-dihydro-7H-pyrrolo[2,3-c]pyridin-7-one] | 23 | 128 |
| Cc1cnc2nc(Cn3ccc4c(C(=O)c5c(F)cccc5F)c[nH]c4c3=O)[nH]c2c1 [Example 12, 3-(2,6-difluorobenzoyl)-6-[(6-methyl-3H-imidazo[4,5-b]pyridin-2-yl)methyl]-1,6-dihydro-7H-pyrrolo[2,3-c]pyridin-7-one] | 25 | 142 |
| O=C(c1c(F)cccc1F)c1c[nH]c2c(=O)n(Cc3nc4ncc(C(F)(F)F)cc4[nH]3)ccc12 [Example 21, 3-(2,6-difluorobenzoyl)-6-{[6-(trifluoromethyl)-3H-imidazo[4,5-b]pyridin-2-yl]methyl}-1,6-dihydro-7H-pyrrolo[2,3-c]pyridin-7-one] | 38 | 2060 |
| O=C(c1c(F)cc(F)cc1F)c1c[nH]c2c(=O)n(Cc3nc4ccccc4o3)ccc12 [Example 10, 6-(1,3-benzoxazol-2-ylmethyl)-3-(2,4,6-trifluorobenzoyl)-1,6-dihydro-7H-pyrrolo[2,3-c]pyridin-7-one] | 40 | 1370 |
| O=C(O)c1ccn2cc(Cn3ccc4c(C(=O)c5c(F)cc(F)cc5F)c[nH]c4c3=O)nc2c1 [Example 23, 2-{[7-oxo-3-(2,4,6-trifluorobenzoyl)-1,7-dihydro-6H-pyrrolo[2,3-c]pyridin-6-yl]methyl}imidazo[1,2-a]pyridine-7-carboxylic acid] | 2 | – |
| O=c1c2[nH]cc(Cc3c(F)cc(F)cc3F)c2ccn1Cc1nc2ncccc2[nH]1 [Example 29, 6-(1H-imidazo[4,5-b]pyridin-2-ylmethyl)-3-(2,4,6-trifluorobenzyl)-1,6-dihydro-7H-pyrrolo[2,3-c]pyridin-7-one] | 108 | 503 |
| O=C(c1c(F)cccc1F)c1c[nH]c2c(=O)n(Cc3nc4cccnc4[nH]3)ccc12 [Example 7, 3-(2,6-difluorobenzoyl)-6-(3H-imidazo[4,5-b]pyridin-2-ylmethyl)-1,6-dihydro-7H-pyrrolo[2,3-c]pyridin-7-one] | 38 | 248 |
